{"source": "patent US9243247B2", "about": "“Composition for promoting apoptosis or inhibiting cell growth, comprising epstein-barr virus microrna” (Catholic University Industry Academic Cooperation Foundation, priority 2011, dated 2016)", "format_in_all_cases": "cell-based", "key": {"[1]": {"tested_on": "BIRC6 protein", "assay": "BIRC6 protein level by Western blotting", "conditions": "AGS; 48 hours after transfection; listed as miR-BART15-3p", "procedure": "(§1) miR-BART15-3p was transfected to AGS by using lipofectamine-2000. Forty eight hours after the transfection, the cells were harvested and a QRT-PCR and a Western blotting were performed (FIGS. 12A and 12B). The BIRC6 mRNA level was not changed in the AGS to which miR-BART15-3p was transfected, while the protein level was decreased.\n(§2) An miR-BART15-3p inhibitor was transfected to AGS-EBV by using lipofectamine-2000. Forty eight hours after the transfection, the cells were harvested and a QRT-PCR and a Western blotting were performed (FIGS. 12C and 12D). The BIRC6 mRNA level was not changed in the AGS-EBV to which an miR-BART15-3p inhibitor was transfected, while the protein level was increased."}, "[2]": {"tested_on": "3′UTR of BIRC6", "assay": "Dual luciferase reporter assay (psiCHECK) in HEK293T, BIRC6 3'UTR", "conditions": "for renilla value: 48 hours", "excerpt": "For an miRNA target test, to psiCHECK, which is a luciferase vector (FIG. 9) specially designed for an miRNA target test including a firefly gene and a renilla gene in the same vector, a 3′UTR of the five genes shown in Table 5, which might be targeted by miR-BART15-3p, was individually cloned to prepare a vector for a target test for each of the genes.\nHEK293T was divided into a 96-well plate such that 5×10^3 cells were allocated to each well, and miR-BART15-3p and a vector for a target test were transfected by using lipofectamine2000. Forty eight hours after the transfection, a dual luciferase reporter assay (Virology. 412(2), 392-400 (2011)) was performed to normalize the results with reference to firefly luciferase and observe a variation of the renilla luciferase gene expression. […] The renilla value was not decreased by […] which was formed by mutating a seed part of miR-BART15-3p (FIG. 10).\nBIRC6 3′UTR included two target sites which might be hybridized with miR-BART15-3p. To verify whether these two sites are directly targeted by miR-BART15-3p, a point mutation was performed at a psiC-BIRC6 site which was seed-matched with miR-BART15-3p to prepare psiC-BIRC6m1 and psiC-BIRC6m2. Both of the sites were mutated to prepare psiC-BIRC6m1m2 (FIG. 11A).\nHEK293T was divided into a 96-well plate such that 5×10^3 cells were allocated to each well, and miR-BART15-3p and a vector for a target test were transfected by using lipofectamine-2000. Forty eight hours after the transfection, a dual luciferase reporter assay (Virology. 412(2), 392-400 (2011)) was performed to normalize the results with reference to firefly luciferase and observe a variation of the renilla luciferase gene expression. The renilla value was not decreased in psiC-BIRC6m1 and psiC-BIRC6m1m2 by, while the renilla value was decreased in psiC-BIRC6m2 as in the case of psiC-BIRC6."}, "[3]": {"tested_on": "BIRC6 mRNA", "assay": "BIRC6 mRNA level by QRT-PCR", "conditions": "AGS; 48 hours after transfection", "procedure": "as §1, §2"}}, "data": [{"substance": "BART15-3p: EBV BART miRNA mimic, double stranded RNA; sense SEQ NO: 15, antisense SEQ NO: 16 (sense GUCAGUGGUUUUGUUUCCUUGA; antisense UCAAGGAAACAAAACCACUGAC; chemistry not given here)", "values": [{"measurement": "BIRC6 protein level", "setting": "[1]", "result": "decrease"}, {"measurement": "renilla value", "setting": "[2]; psiC-BIRC6m1 (point mutation of site 1)", "result": "not decreased"}, {"measurement": "renilla value", "setting": "[2]; psiC-BIRC6m1m2 (both sites mutated)", "result": "not decreased"}, {"measurement": "renilla value", "setting": "[2]; psiC-BIRC6m2 (point mutation of site 2)", "result": "decreased"}, {"measurement": "renilla value (renilla luciferase, normalized to firefly)", "setting": "[2]; psiCHECK with BIRC6 3′UTR (psiC-BIRC6), 48 hours after transfection, listed as miR-BART15-3p", "result": "decreased"}, {"measurement": "BIRC6 mRNA level", "setting": "[3]", "result": "not changed"}]}]}
